Test results published in patent US20080200505A1, “Piperidines for the Treatment of Chemokine Mediated Diseases” (ASTRAZENECA AB, priority 2005, published 2008).

Each molecule was assayed against T1, human H1 receptor (Homo sapiens, UniProt P35367) (assay: Histamine H1 receptor binding, competition displacement of [3H]-pyrilamine). Settings: displacement of 1 nM [3H]-pyrilamine; membranes from recombinant CHO-K1 cells expressing the human H1 receptor; 1 hour at room temperature; read-out: H1 pKi (converted).
T1 construct: purchased Euroscreen SA, Brussels, Belgium ES-390-M; host or cells: CHO-K1
Procedure: Histamine H1 receptor binding activity of compounds of the invention was assessed by competition displacement of 1 nM [3H]-pyrilamine (Amersham, Bucks, Product code TRK 608, specific activity 30 Ci/mmol) to 2 μg membranes prepared from recombinant CHO-K1 cells expressing the human H1 receptor (Euroscreen SA, Brussels, Belgium, product code ES-390-M) in assay buffer (50 mM Tris pH 7.4 containing 2 mM MgCl2, 250 mM sucrose and 100 mM NaCl) for 1 hour at room temperature.
The following compounds of the invention gave inhibition of [3H] pyrilimine binding: […]

T1 sequence (P35367 whole entry): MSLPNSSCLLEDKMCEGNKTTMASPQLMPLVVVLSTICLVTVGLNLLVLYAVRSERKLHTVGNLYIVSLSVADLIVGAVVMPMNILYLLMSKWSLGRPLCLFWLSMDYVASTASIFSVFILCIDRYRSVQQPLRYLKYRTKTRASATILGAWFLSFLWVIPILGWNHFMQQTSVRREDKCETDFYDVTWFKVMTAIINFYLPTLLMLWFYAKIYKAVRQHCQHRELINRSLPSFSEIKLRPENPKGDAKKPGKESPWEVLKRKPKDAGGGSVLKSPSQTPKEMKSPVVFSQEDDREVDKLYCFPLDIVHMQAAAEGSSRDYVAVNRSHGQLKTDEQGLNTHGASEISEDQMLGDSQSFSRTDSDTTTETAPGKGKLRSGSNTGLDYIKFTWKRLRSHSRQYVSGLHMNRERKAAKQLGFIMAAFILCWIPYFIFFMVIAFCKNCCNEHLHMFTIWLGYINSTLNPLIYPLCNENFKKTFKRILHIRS

Row | SMILES | Ki [nM]
1 | O=C(O)C1CCCC1N1CCC(CN2CCC(Oc3ccc(Cl)c(Cl)c3)CC2)CC1 [Example 4A, (1S,2R) and (1R,2S)-2-(4-{[4-(3,4-dichlorophenoxy)piperidin-1-yl]methyl}piperidin-1-yl)cyclopentanecarboxylate] | 316
2 | O=C(O)[C@H]1C2CCC(C2)[C@H]1N1CCC(CN2CCC(Oc3ccc(Cl)c(Cl)c3)CC2)CC1 (mixture of isomers) [Example 3A, (2S,3R) and (2R,3S)-3-(4-{[4-(3,4-dichlorophenoxy)piperidin-1-yl]methyl}piperidin-1-yl)bicyclo[2.2.1]heptane-2-carboxylic acid] | 126
3 | O=C(O)[C@@H]1CCCC[C@H]1N1CCC(CN2CCC(Oc3ccc(Cl)c(Cl)c3)CC2)CC1 (racemic) [Example 1A, (1R,2R) and (1S,2S)-2-(4-{[4-(3,4-dichlorophenoxy)piperidin-1-yl]methyl}piperidin-1-yl)cyclohexanecarboxylic acid] | 200
